Experimental data taken from patent US9399626B2, “2-thiopyrimidinones” (Pfizer Inc., priority 2011, dated 2016).
Where a name gives a salt, the structure may show the parent alone.

The compounds below were run against T1, MPO (purified from human polynuclear leukocytes) (Homo sapiens, UniProt P05164) (assay: MPO Amplex Red Activity Assay). Settings: Table 1, 2 μM H2O2, pH 7.4.
T1 construct: purified from human polynuclear leukocytes; purchased Calbiochem/EMD Biosciences; host or cells: human polynuclear leukocytes (natural source)
T1 sequence (P05164 279-745 limits assumed): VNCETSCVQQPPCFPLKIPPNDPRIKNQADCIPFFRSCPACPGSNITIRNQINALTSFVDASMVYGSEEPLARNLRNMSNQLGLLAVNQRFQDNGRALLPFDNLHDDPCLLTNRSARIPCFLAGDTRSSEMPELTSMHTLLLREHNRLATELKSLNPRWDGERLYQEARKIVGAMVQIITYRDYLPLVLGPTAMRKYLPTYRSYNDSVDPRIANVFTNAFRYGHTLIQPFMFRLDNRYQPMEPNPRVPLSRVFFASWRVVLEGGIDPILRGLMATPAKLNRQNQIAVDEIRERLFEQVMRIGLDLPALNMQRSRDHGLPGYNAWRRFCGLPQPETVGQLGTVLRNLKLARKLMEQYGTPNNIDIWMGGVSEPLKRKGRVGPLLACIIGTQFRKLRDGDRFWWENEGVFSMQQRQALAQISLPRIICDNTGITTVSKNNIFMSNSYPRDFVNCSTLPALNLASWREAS
T1 sequence (P05164 165-273 limits assumed): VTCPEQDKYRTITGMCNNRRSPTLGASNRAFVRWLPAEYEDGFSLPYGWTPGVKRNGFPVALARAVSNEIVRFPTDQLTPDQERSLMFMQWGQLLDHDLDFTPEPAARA
Type: biochemical
Method in brief: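 Human leukocyte MPO […] oxidises 30 μM Amplex Red with 2 μM H2O2 in 50 mM NaPi pH 7.4, 150 mM NaCl, 1 mM DTPA, 2% DMSO. Resorufin fluorescence (ex 530/em 580 nm) read every 20 s, minus catalase background. kobs from the first 600 s, corrected for auto-inactivation, fit versus [I] for kinact/KI.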

MPO kinact/Ki | SMILES
8280 1/s per M | COc1ccccc1-c1cc(=O)[nH]c(=S)n1CCCN [Example 18, 1-(3-aminopropyl)-6-(2-methoxyphenyl)-2-thioxo-2,3-dihydropyrimidin-4(1H)-one hydrochloride]
2390 1/s per M | COCCn1c(-c2cnc3ccccc3c2)cc(=O)[nH]c1=S [Example 320, 1-(2-methoxyethyl)-6-quinolin-3-yl-2-thioxo-2,3-dihydropyrimidin-4(1H)-one]
6100 1/s per M | COCCn1c(-c2cc(Cl)ccc2OC)cc(=O)[nH]c1=S [Example 333, 6-(5-chloro-2-methoxyphenyl)-1-(2-methoxyethyl)-2-thioxo-2,3-dihydropyrimidin-4(1H)-one]

The next lines start with the compound.

SMILES | MPO kinact/Ki
COc1ccc(-c2cc(=O)[nH]c(=S)n2CC(C)O)c(OC)c1 (centres unmarked) [Example 179, 6-(2,4-dimethoxyphenyl)-1-(2-hydroxypropyl)-2-thioxo-2,3-dihydropyrimidin-4(1H)-one] | 2790 1/s per M
COCCn1c(-c2cc(C)cnc2OC)cc(=O)[nH]c1=S [Example 51, 1-(2-methoxyethyl)-6-(2-methoxy-5-methylpyridin-3-yl)-2-thioxo-2,3-dihydropyrimidin-4(1H)-one] | 6180 1/s per M
COCCn1c(-c2ccc3[nH]ccc3c2)cc(=O)[nH]c1=S [Example 303, 6-(1H-indol-5-yl)-1-(2-methoxyethyl)-2-thioxo-2,3-dihydropyrimidin-4(1H)-one] | 5270 1/s per M
COc1ncc(C)cc1-c1cc(=O)[nH]c(=S)n1CCO [Example 150, 1-(2-hydroxyethyl)-6-(2-methoxy-5-methylpyridin-3-yl)-2-thioxo-2,3-dihydropyrimidin-4(1H)-one] | 8970 1/s per M

Same assay, conditions: Table 1A, 2 μM H2O2, pH 7.4

MPO kinact/Ki | SMILES
6560 1/s per M | O=c1cc(-c2ccc(F)cc2OCCO)n(CCO)c(=S)[nH]1 [Example 413, 6-[4-fluoro-2-(2-hydroxyethoxy)phenyl]-1-(2-hydroxyethyl)-2-thioxo-2,3-dihydropyrimidin-4(1H)-one]
12000 1/s per M | CCNC(=N)NCCCn1c(-c2cc(Cl)ccc2OC)cc(=O)[nH]c1=S [Example 449, 1-{3-[6-(5-chloro-2-methoxyphenyl)-4-oxo-2-thioxo-3,4-dihydropyrimidin-1(2H)-yl]propyl}-2-ethylguanidine]
5210 1/s per M | COc1ccc(-c2cc(=O)[nH]c(=S)n2CC(N)=O)c(OCCO)c1 [Example 420, 2-{6-[2-(2-hydroxyethoxy)-4-methoxyphenyl]-4-oxo-2-thioxo-3,4-dihydropyrimidin-1(2H)-yl}acetamide]
1830 1/s per M | NCCn1c(-c2cc3ccccc3s2)cc(=O)[nH]c1=S [Example 354, 1-(2-aminoethyl)-6-(1-benzothiophen-2-yl)-2-thioxo-2,3-dihydropyrimidin-4(1H)-one]

More lines, now with the values behind:

SMILES | MPO kinact/Ki
NC(=O)Cn1c(-c2ccc3c(c2)OCCO3)cc(=O)[nH]c1=S [Example 358, 2-[6-(2,3-dihydro-1,4-benzodioxin-6-yl)-4-oxo-2-thioxo-3,4-dihydropyrimidin-1(2H)-yl]acetamide] | 1710 1/s per M
CNCCN(C)C(=O)Cn1c(-c2ccc(OC)cc2OC)cc(=O)[nH]c1=S [Example 400, 2-[6-(2,4-dimethoxyphenyl)-4-oxo-2-thioxo-3,4-dihydropyrimidin-1(2H)-yl]-N-methyl-N-[2-(methylamino)ethyl]acetamide] | 2650 1/s per M
COCCNC(=O)Cn1c(-c2ccc(OC)cc2OC)cc(=O)[nH]c1=S [Example 436, 2-[6-(2,4-dimethoxyphenyl)-4-oxo-2-thioxo-3,4-dihydropyrimidin-1(2H)-yl]-N-(2-methoxyethyl)acetamide] | 3710 1/s per M
